Results published in article PMC10914731, “Homo-BacPROTAC-induced degradation of ClpC1 as a strategy against drug-resistant mycobacteria” (Nature Communications, 2024).
≈ marks a conversion by molar mass, not a printed value. Where “and” joins values, the source holds several entries; their conditions need not be identical. Identical values can stand only once. Like-named read-outs stand apart in the source and are kept apart here.

Legend:
[1] = test system: M. tuberculosis H37Rv (ATCC 27294); test: microbe, parasite or virus in culture; format: cell-based
[2] = test system: Mtb (moxR) FNDR-M1; test: microbe, parasite or virus in culture; format: cell-based
[3] = test system: Mtb (katG del) ATCC 35822; test: microbe, parasite or virus in culture; format: cell-based
[4] = test system: Mtb # 11291; test: microbe, parasite or virus in culture; format: cell-based; details: for MIC: read-out: MIC Mtb # 11291
[5] = test system: Mtb # 8673; test: microbe, parasite or virus in culture; format: cell-based
[6] = target: ClpC1 NTD protein (M. tuberculosis) (Mycobacterium tuberculosis, UniProt P9WPC9); test: biochemical; format: binding; details: SPR
[7] = in vitro; details: human
How it was run: (§1)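 Values are bidirectional Caco-2 apparent permeabilities, P(A−B) and P(B−A), given in 10^-6 cm s-1. The efflux ratio divides P(B−A) by P(A−B), and intrinsic permeability averages the two directions.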

[8] = test system: Caco-2 monolayers; test: in vitro; details: human, Caco-2
How it was run: as §1

[9] = format: in vitro ADME, Mice; details: clearance in microsomes
How it was run: (§2)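 Metabolic depletion in liver microsomes (0.5 mg/ml, 1 mM NADPH, 37 °C) starting from 1 µmol/l test compound, sampled at multiple times with acetonitrile quench. LC-MS/MS quantitation; half-life converted to %Qh.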

[10] = format: in vitro ADME, Rat
How it was run: as §2

[11] = Microsomal stability, human; format: in vitro ADME
How it was run: as §2

[12] = Hepatocyte stability, mice; format: in vitro ADME; details: mouse, pH 7.4
How it was run: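 Clearance expressed as % of liver blood flow (% Qh), derived from half-life via the well-stirred liver model. Compound at 1 µM final was incubated up to 6 h with ~1 million cells/mL hepatocytes in 50% serum buffer, 37 °C, pH 7.4.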

[13] = format: in vitro ADME, Rat; details: rat, pH 7.4
[14] = format: in vitro ADME, Human; details: human, pH 7.4
[15] = test system: Msm 607; test: microbe, parasite or virus in culture; format: cell-based
[16] = test system: Msm 700084; test: microbe, parasite or virus in culture; format: cell-based
[17] = target: His6-tagged ClpC1-NTD substrate, M. smegmatis ClpC1P1P2 (UniProt A0R574+P9WPC9); test: biochemical; format: biochemical; details: Msm
[18] = target: ClpC1-NTD substrate, M. tuberculosis ClpC1P1P2 (Mycobacterium tuberculosis, UniProt P9WPC9); test: biochemical; format: biochemical; details: Mtb
[19] = test system: Mtb H37Rv in THP-1 macrophages; test: Intracellular MIC assay in THP-1 macrophages; format: cell-based, Mycobacterium tuberculosis; set-up: Emax: unit not given here
[20] = Mycobacterium tuberculosis, mean, n = 2 well replicates
[21] = Mycobacterium tuberculosis, single well replicates
[22] = mean of the measurements, read-out: 1-Dmax, Mean
[23] = mean of the measurements, read-out: DC50, Mean

Chain of ClpC1-NTD substrate, M. tuberculosis ClpC1P1P2 (P9WPC5 whole entry): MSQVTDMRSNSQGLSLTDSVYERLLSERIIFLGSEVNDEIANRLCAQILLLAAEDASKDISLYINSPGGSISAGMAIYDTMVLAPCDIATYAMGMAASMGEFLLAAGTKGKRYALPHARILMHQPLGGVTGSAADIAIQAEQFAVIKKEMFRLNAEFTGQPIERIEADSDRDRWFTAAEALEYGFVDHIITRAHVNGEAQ
Chain of ClpC1-NTD substrate, M. tuberculosis ClpC1P1P2 (P9WPC9 whole entry): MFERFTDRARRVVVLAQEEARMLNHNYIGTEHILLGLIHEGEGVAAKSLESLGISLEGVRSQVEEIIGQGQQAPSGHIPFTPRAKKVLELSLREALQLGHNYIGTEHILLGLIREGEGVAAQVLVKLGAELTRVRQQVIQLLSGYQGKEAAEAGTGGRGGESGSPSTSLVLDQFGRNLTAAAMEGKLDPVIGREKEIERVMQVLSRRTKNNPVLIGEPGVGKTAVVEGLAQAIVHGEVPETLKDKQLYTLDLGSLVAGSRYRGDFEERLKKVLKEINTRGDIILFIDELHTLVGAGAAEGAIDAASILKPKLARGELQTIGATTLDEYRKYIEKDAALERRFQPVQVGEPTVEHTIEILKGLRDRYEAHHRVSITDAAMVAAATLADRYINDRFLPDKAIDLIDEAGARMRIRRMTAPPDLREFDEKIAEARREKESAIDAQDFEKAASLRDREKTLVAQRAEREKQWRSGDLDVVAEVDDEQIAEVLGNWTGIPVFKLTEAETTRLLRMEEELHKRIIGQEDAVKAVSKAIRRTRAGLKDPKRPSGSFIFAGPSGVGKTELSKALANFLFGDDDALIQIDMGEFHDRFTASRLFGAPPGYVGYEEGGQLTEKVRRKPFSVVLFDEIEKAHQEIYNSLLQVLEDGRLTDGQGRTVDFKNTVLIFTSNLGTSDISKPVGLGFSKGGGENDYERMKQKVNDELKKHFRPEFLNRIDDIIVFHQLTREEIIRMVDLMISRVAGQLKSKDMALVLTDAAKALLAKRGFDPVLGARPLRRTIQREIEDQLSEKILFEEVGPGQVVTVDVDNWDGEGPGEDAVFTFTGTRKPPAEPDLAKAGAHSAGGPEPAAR
Chain of ClpC1-NTD substrate, M. tuberculosis ClpC1P1P2 (P9WPC3 whole entry, further chain): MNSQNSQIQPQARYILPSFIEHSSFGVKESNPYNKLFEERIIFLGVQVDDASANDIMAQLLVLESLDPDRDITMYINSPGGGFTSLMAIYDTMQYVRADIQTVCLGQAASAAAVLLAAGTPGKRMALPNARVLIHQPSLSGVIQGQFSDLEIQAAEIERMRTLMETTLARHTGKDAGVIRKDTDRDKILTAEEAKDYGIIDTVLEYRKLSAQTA
Chain of His6-tagged ClpC1-NTD substrate, M. smegmatis ClpC1P1P2 (P9WPC9 1-156, looked up, natural form): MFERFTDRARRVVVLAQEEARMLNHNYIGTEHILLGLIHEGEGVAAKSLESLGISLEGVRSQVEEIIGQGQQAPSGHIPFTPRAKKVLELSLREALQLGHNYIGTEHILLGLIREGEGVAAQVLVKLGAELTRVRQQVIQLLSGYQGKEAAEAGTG
Chain of His6-tagged ClpC1-NTD substrate, M. smegmatis ClpC1P1P2 (A0R574 whole entry): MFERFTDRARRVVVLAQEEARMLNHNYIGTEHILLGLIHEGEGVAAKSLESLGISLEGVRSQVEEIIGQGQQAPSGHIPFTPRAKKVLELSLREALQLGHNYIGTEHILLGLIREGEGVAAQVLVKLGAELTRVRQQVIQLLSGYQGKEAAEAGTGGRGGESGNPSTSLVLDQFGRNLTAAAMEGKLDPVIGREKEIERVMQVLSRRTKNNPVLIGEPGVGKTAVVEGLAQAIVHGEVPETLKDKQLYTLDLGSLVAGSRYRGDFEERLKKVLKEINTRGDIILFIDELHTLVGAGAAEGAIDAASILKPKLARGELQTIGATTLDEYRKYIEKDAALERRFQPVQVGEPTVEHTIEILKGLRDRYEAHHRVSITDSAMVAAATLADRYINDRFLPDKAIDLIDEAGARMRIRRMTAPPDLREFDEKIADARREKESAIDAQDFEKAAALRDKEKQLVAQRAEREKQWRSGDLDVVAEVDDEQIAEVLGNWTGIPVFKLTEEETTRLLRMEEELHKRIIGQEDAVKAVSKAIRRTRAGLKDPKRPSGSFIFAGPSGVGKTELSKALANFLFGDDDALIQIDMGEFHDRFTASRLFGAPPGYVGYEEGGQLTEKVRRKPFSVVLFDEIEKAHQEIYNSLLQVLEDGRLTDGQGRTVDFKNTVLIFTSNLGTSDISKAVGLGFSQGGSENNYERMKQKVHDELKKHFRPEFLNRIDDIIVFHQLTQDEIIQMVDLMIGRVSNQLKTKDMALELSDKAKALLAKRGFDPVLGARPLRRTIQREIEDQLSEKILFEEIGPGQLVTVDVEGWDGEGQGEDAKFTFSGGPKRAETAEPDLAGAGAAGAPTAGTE
Chain of ClpC1 NTD protein (M. tuberculosis) (P9WPC9 1-156, looked up, natural form): as the sequence (P9WPC9 1-156, looked up, natural form) above

NNC(=O)c1ccncc1 [Isoniazid]
MIC ([1]; M. tuberculosis H37Rv 27294, single well replicates, read-out: MIC): 0.23 µM (≈ 0.0315 µg/mL)
MIC ([1]; Mycobacterium tuberculosis, M. tuberculosis H37Rv 27294, single well replicates, read-out: MIC): 0.23 µM (≈ 0.0315 µg/mL)
MIC ([1]; Mycobacterium tuberculosis, Mtb H37Rv, mean ± SD, n = 3 well replicates, read-out: MIC): 0.2 µM (≈ 0.0274 µg/mL)
MIC ([2]; M. tuberculosis FNDR-M1, single well replicates): 0.11 µM (≈ 0.0151 µg/mL)
MIC ([2]; Mycobacterium tuberculosis, M. tuberculosis FNDR-M1, single well replicates): 0.11 µM (≈ 0.0151 µg/mL)
MIC ([2]; Mycobacterium tuberculosis, Mtb (moxR) FNDR-M1, mean ± SD, n = 3 well replicates): 0.1 µM (≈ 0.0137 µg/mL)
MIC ([3]; M. tuberculosis ATCC 35822, single well replicates): >232.22 µM
MIC ([3]; Mycobacterium tuberculosis, ATCC35822, M. tuberculosis ATCC 35822, single well replicates): > 232 µM
MIC ([3]; Mycobacterium tuberculosis, ATCC35822, Mtb (katG del) ATCC 35822, mean ± SD, n = 3 well replicates): > 232 µM
MIC [4, 20]: 3.6 µM and 0.5 µg/mL
MIC [4, 21]: 3.65 µM and 0.5 µg/mL
MIC Mtb # 11291 ([4]; single well replicates): 0.5 µg/mL (≈ 3.65 µM)
MIC ([4]; single well replicates): 3.65 µM (≈ 0.501 µg/mL)
MIC [5, 20]: 467 µM and 64 µg/mL
MIC [5, 21]: 467 µM and 64 µg/mL
MIC ([5]; single well replicates): 466.68 µM (≈ 64 µg/mL)
MIC Mtb # 8673 ([5]; single well replicates): 64 µg/mL (≈ 467 µM)

CO[C@H](c1ccccc1)[C@@H]1NC(=O)[C@H](C)NC(=O)[C@H](C[C@@H](C)CO)N(C)C(=O)[C@H](Cc2cn(C)c3ccccc23)NC(=O)[C@H](Cc2cn(CCOCCOCCn3cc(C[C@@H]4NC(=O)[C@H](CC(C)C)N(C)C(=O)[C@H](C(C)C)NC(=O)[C@H]([C@H](OC)c5ccccc5)NC(=O)[C@H](C)NC(=O)[C@H](C[C@@H](C)CO)N(C)C(=O)[C@H](Cc5cn(C)c6ccccc56)NC4=O)nn3)nn2)NC(=O)[C@H](CC(C)C)N(C)C(=O)[C@H](C(C)C)NC1=O [Compound 11]
Kd ([6]; individual measurements (source data), read-out: KD ClpC1-NTD): 0.306 nM and 0.313 nM and 0.72 nM and 0.499 nM and 0.412 nM and 0.253 nM and 0.262 nM
koff ClpC1-NTD ([6]; single independent measurements): 0.0009 s⁻¹ and 0.0004 s⁻¹
Kd ([6]; read-out: ClpC1-NTD KD Mean ± SD): 0.4 ± 0.2 nM
efflux ratio ([7]; Caco-2): 2.6
Papp B→A ([7]; Caco-2, CACO permeability PEBA): 0.36 ×10⁻⁶ cm/s
Papp A→B ([7]; Caco-2, Caco-2 permeability P (A-B)): 1.6 ×10⁻⁶ cm/s
Papp B→A ([7]; Caco-2, Caco-2 permeability P (B-A)): 4.2 ×10⁻⁶ cm/s
Caco-2 Int. Perm [8]: 2.9
Microsomal Stability Mice [9]: < 24 %Qh
Microsomal Stability Rat QH ([10]; Rat): <23.1%
Microsomal Stability Rat ([10]; clearance in microsomes): < 23 %Qh
Microsomal Stability Human QH ([11]; Human): <24.4%
Microsomal Stability Human ([11]; clearance in microsomes): < 24 %Qh
Hepatocyte Mice [12]: 15 %Qh
Hepatocyte Rat [13]: 6 %Qh
Hepatocyte Stability Rat QH [13]: 6.192%
Hepatocyte Human [14]: 12 %Qh
Hepatocyte Stability Human QH [14]: 12.386%
MIC ([1]; Mycobacterium tuberculosis, M. tuberculosis H37Rv strain, read-out: MIC Mtb H37Rv Mean ± SD): 0.1 µM (≈ 0.203 µg/mL)
MIC ([1]; Mycobacterium tuberculosis, Mtb H37Rv (Supplementary Table 2), read-out: MIC Mtb): 0.1 µM (≈ 0.203 µg/mL)
MIC ([1]; Mycobacterium tuberculosis, individual measurements (source data), read-out: Mtb MIC): 0.097 µM (≈ 0.197 µg/mL)
MIC ([1]; Mycobacterium tuberculosis, single determinations, read-out: Mtb MIC): 0.097 µM (≈ 0.197 µg/mL)
MIC ([1]; individual measurements (source data), read-out: Mtb MIC): 0.097 µM (≈ 0.197 µg/mL)
MIC ([15]; Mycolicibacterium smegmatis, 607, read-out: MIC Msm 607): 1.6 µM (≈ 3.24 µg/mL)
MIC ([15]; Mycolicibacterium smegmatis, 607, read-out: Msm 607 MIC, single determinations): 1.56 µM (≈ 3.16 µg/mL)
MIC ([16]; Mycolicibacterium smegmatis, 700084, single determinations, read-out: Msm 700084 MIC): 1.56 µM (≈ 3.16 µg/mL)
MIC ([16]; Mycolicibacterium smegmatis, 700084, read-out: MIC Msm 700084): 1.6 µM (≈ 3.24 µg/mL)
1-Dmax, single measurements ([17]; Measurement 1-6): 84.8% and 87.6% and 91.1%
1-Dmax (percent substrate remaining at maximal degradation) ([17]; Measurement 1-6, read-out: 1-Dmax, single measurements): 85.6%
DC50 ([17]; Measurement 1-6, read-out: DC50, single measurements): 7400 nM and 6100 nM and 5000 nM and 3900 nM
1-Dmax (percent substrate remaining at maximal degradation) [17, 22]: 87%
DC50 [17, 23]: 5600 nM
1-Dmax, single measurements ([18]; Measurement 1-4): 69.6%
1-Dmax (percent substrate remaining at maximal degradation) ([18]; Measurement 1-4, read-out: 1-Dmax, single measurements): 77.4%
DC50 ([18]; Measurement 1-4, read-out: DC50, single measurements): 4700 nM and 5400 nM
1-Dmax (percent substrate remaining at maximal degradation) [18, 22]: 74%
DC50 [18, 23]: 5100 nM
Emax [19]: 0.51
